Experimental data: paper PMC3914206

Columns and labels:
panel of 442 kinases [1] = target: T1, panel of 442 kinases (Homo sapiens, UniProt Q09013); format: binding; details: Compound Concentration 10 µM
T1 construct: purchased KINOMEscan
T1 sequence (Q09013 1-629): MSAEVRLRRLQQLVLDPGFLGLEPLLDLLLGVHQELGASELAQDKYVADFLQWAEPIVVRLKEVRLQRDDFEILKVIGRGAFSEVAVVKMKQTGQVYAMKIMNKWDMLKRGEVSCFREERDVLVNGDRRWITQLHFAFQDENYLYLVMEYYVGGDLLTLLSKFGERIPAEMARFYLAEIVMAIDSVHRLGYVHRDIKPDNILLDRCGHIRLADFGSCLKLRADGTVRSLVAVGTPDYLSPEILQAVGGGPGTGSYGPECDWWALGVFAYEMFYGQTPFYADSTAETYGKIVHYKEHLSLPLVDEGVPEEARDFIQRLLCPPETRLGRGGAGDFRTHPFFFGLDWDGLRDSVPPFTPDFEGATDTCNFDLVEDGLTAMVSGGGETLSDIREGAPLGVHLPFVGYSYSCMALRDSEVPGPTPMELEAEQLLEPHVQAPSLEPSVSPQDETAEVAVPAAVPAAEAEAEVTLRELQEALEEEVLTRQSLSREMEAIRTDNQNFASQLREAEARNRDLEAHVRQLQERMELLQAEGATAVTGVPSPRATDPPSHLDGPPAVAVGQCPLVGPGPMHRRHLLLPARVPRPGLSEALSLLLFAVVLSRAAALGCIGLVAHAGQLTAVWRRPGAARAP
From the text: (§1) We assessed the selectivity of members of this scaffold using the KINOMEscan methodology across a near comprehensive panel of 442 kinases [[18,27]].

panel of 442 kinases [2] = target: T2, panel of 442 kinases (Homo sapiens, UniProt Q9UPZ9); format: binding; details: Compound Concentration 10 µM
T2 construct: purchased KINOMEscan
T2 sequence (Q9UPZ9 1-632): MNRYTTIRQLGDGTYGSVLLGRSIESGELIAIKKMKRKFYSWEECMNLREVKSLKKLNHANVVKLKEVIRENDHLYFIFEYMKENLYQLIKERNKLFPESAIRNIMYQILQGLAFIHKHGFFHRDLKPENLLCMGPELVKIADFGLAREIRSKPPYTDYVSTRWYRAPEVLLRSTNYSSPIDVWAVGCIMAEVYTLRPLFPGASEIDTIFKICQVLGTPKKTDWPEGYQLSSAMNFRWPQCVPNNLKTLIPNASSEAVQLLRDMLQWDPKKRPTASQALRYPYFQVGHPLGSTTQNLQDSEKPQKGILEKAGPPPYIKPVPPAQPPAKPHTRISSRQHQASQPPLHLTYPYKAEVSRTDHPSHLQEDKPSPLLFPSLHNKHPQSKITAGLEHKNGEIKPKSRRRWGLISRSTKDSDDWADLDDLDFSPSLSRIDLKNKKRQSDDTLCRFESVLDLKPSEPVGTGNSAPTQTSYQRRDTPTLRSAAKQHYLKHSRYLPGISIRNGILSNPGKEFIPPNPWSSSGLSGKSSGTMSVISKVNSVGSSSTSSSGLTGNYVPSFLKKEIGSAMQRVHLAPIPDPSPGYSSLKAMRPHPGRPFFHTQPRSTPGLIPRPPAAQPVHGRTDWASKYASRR
From the text: as §1

COc1cc(C(=O)N2CCC(N3CCN(C)CC3)CC2)ccc1Nc1ncc2c(n1)N(C1CCCC1)c1ccccc1C(=O)N2C [Compound 25, 11-cyclopentyl-2-((2-methoxy-4-(4-(4-methylpiperazin-1-yl)piperidine-1-carbonyl)phenyl)amino)-5-methyl-5H-benzo[e]pyrimido[5,4-b][1,4]diazepin-6(11H)-one]
KINOMEscan: DMPK (panel of 442 kinases [1]): 96 | KINOMEscan: ICK (panel of 442 kinases [2]): 100

COc1cc(C(=O)N2CCC(N3CCN(C)CC3)CC2)ccc1Nc1ncc2c(n1)N1CCc3cccc(c31)C(=O)N2C [Compound 24]
KINOMEscan: DMPK (panel of 442 kinases [1]): 85

COc1cc(C(=O)N2CCC(N3CCN(C)CC3)CC2)ccc1Nc1ncc2c(n1)N(C)c1ccccc1C(=O)N2C [15 (LRRK2-IN-1)]
KINOMEscan: DMPK (panel of 442 kinases [1]): 100 | KINOMEscan: ICK (panel of 442 kinases [2]): 90

CCOc1cc(C(=O)N2CCC(N3CCN(C)CC3)CC2)ccc1Nc1ncc2c(n1)N(C1CCCC1)c1ccccc1C(=O)N2C [Compound 26]
KINOMEscan: DMPK (panel of 442 kinases [1]): 100 | KINOMEscan: ICK (panel of 442 kinases [2]): 100
